Reference: US20260076937A1, “COMPOSITION FOR PREVENTING OR TREATING AUTOIMMUNE DISEASES COMPRISING A BCAT1 INHIBITOR” (Seoul National University R&DB Foundation, priority 2024, published 2026)
“Also recorded” adds a separate entry of the source.

What was measured:
mTORC1 = assay: Phospho-p70-S6K immunoblot (mTORC1 activity) in CD4+ memory T cells; format: cell-based, human; settings: about 1-2 hours after stimulation
Procedure: Cells were cultured in radioimmunoprecipitation assay (RIPA) buffer (150 mM NaCl, 10 mM Na2HPO4, pH 7.2, 1% Nonidet P-40, 0.5% deoxycholate) containing phenylmethylsulfonyl fluoride (PMSF; Millipore Sigma, Burlington, MA), EDTA, protease and phosphatase inhibitor cocktail (Thermo Fisher Scientific) to extract total protein. Proteins were separated on 8-10% SDS-polyacrylamide gels and blotted onto polyvinylidene difluoride (PVDF) membranes (Bio-Rad, Hercules, CA) followed by 5% BSA in Tris buffered saline (TBS) with 0.1% Tween 20 and blocked for 1 hour. Membranes were cultured overnight with anti-human SLC7A5, anti-BCAT, anti-phospho-p70S6K, anti-p70S6K, anti-HIF-1α (all provided by Cell Signaling Technology, Danvers, MA) primary antibodies at 4° C., followed by culture with HRP-conjugated secondary antibodies for 1 hour at room temperature. Membranes were developed using SuperSignal West Femto Maximum Sensitivity Substrate or SuperSignal West Pico PLUS Chemiluminescent Substrate system (Thermo Fisher Scientific).

[1] = test system: human CD4+ naive and memory T cells; assay: CFSE dilution proliferation assay; format: cell-based; settings: anti-CD3/CD28 microbeads; Bi2 10 μM, JPH203 10 μM, LβhL 400 mg/L
Procedure: To analyze T cell proliferative capacity, purified isolated human CD4+ T cells were labeled with 1 μM carboxyfluorescein succinimidyl ester (CFSE; Invitrogen, Waltham, MA, USA) and then stimulated with anti-CD3/CD28 antibody coated microbeads for 4 days at 37° C. Cells were stained with 7AAD (BD Biosciences) for 10 minutes to distinguish dead cells and the extent of CFSE dilution in 7AAD-cells was measured by BD LSRFortessa to analyze proliferative capacity. Antibodies listed in Table 2 and previously known BD LSRFortessa cell analyzers were used.

[2] = test system: TCR-stimulated human CD4+ naive T cells; assay: Cytokine ELISA of culture supernatants, CD4+ naive T cells; format: cell-based; settings: TCR stimulation 3 days
mouse CD4+ naive T cells = assay: Th17/Th1 polarization of mouse CD4+ naive T cells from iLN; format: cell-based; settings: Bi2 10 μM
Procedure: Blocking BCAT1 with Bi2 attenuates Th17 differentiation in mice. In FIG. 13A mRNA expression of slc7a5 and bcat1 in mouse inguinal LN (iLN) cells was analyzed by RT-qPCR at 24 hours after TCR stimulation with anti-CD3/CD28 antibody (n=5). In FIG. 13B protein expression of BCAT1 in mouse inguinal LN cells was analyzed at 24 hours after stimulation of TCR with anti-CD3/CD28 antibody (n=5). In FIGS. 13C to 13D, mouse CD4^+ naive T cells derived from iLN were differentiated under […] or Th1 polarization conditions for 5 days in the presence of Bi2 (10 μM). The amounts of IFN-γ (c) and IL-17A (d) in the culture supernatants of Th1 and Th17 cells (n=5) are shown. In FIG. 13E, the cells of mouse iLN were stimulated with anti CD3/CD28 antibody in the presence of Bi2 (10 μM) for 24 hours. Cell lysates were immunoblotted for HIF-1α (n=3 independent experiments). Cells treated with COCl2 served as a positive control for HIF-1α. […] FIG. 13F is a representative histogram plot of intracellular HIF-1α in cells of mouse iLN. Cells were stimulated with anti CD3/CD28 antibody in the presence of Bi2 (10 μM) for 24 hours. […] The significance was indicated as *=p<0.05, **=p<0.01, ***=p<0.001, according to Mann-Whitney U test (a, c, d, f) or the two-tailed non-pair t test (b, e)).

[3] = test system: TCR-stimulated human CD4+ memory T cells; assay: Cytokine ELISA of culture supernatants, CD4+ memory T cells; format: cell-based
Procedure: The study protocol was reviewed and approved by the Institutional Review Board (IRB) of Seoul National University Hospital. Peripheral blood was drawn from healthy controls (HC) after obtaining written consent from study participants, and all experiments were performed according to approved guidelines. Peripheral blood mononuclear cells (PBMCs) were isolated from peripheral blood using density gradient centrifugation (Biocoll separation solution; BIOCHROM Inc., Cambridge, UK). Total CD4^+ T cells, naive T cells and memory CD4^+ T-cells were isolated in a negative selection manner from CD14^+ monocyte depleted PBMCs using the MojoSort™ Human Total CD4^+ T-Cells, CD4^+ naive T-cells and CD4^+ memory T-cell isolation kit (BioLegend, San Diego, Calif.). Purified T cells were cultured in RPMI 1640 medium (hereinafter, “complete RPMI 1640”) supplemented with 10% fetal bovine serum (FBS), 1% penicillin/streptomycin, and 1% L-glutamine. Cells were stimulated with anti-CD3/CD28-coated microbeads (1:10 ratio, Dynabeads T-Activator CD3/CD28, Thermo Fisher Scientific, Waltham, MA) in the presence of designated chemical inhibitors or reagents including 2-amino-2-norbornanecarboxylic acid (BCH), JPH203, acetate, MG132, VH298, cobalt chloride (CoCl2), cycloheximid (CHX) (all provided by Sigma-Aldrich, St. Louis, MO), BCAT1 inhibitor 2 (Bi2: provided by Cayman Chemical, Ann Arbor, MI), 3-hydroxy-3-methylbutyric acid (HMB; provided by Thermo Fisher Scientific, Waltham, MA), and L-β-homoleucine (LβhL; provided by Santa Cruz Biotechnology, Heidelberg, Germany). In some experiments, a customized medium depleted of five essential amino acids (leucine, valine, isoleucine, phenylalanine, methionine) was used (Welgene, Gyeongsan, South Korea). All amino acids used (L-leucine, L-valine, L-isoleucine, L-phenylalanine, L-methionine) were purchased from Sigma-Aldrich.
IL-17A and IFN-γ amounts in culture supernatants were quantified using commercially available human ELISA kits (IL-17A ELISA kit by eBioscience and human IFN-γ ELISA MAX Deluxe by BioLegend) according to the manufacturer's instructions. Light density was measured using an Infinite M200 instrument (Tecan, Männedorf, Switzerland).

HIF-1α = assay: RT-qPCR of HIF-1α and HIF-1α target genes in CD4+ memory T cells; format: cell-based, human
Procedure: Total RNA was prepared using TRIzol reagent (Life Technologies, Grand Island, NY), followed by cDNA synthesis (Promega, Madison, WI), followed by real-time quantitative RT-PCR with a CFX system (Bio-Rad, Hercules, CA) using SensiFAST SYBR® Lo-ROX (Bioline, London. UK). Gene expression levels were normalized for […] expression using the comparative CT method (ΔΔCT).

`O=C(NNS(=O)(=O)c1ccccc1C(F)(F)F)c1cc2cc(Cl)ccc2o1` [Bi2, BCATc inhibitor 2] was tested, and the S6K phosphorylation (mTORC1) was “inhibitory effect”, the “proliferation (CFSE dilution)” value [1] was “no effect on proliferation” and the “IL-2 production by CD4+ naive T cells” value [2] was “not affected”. For the same molecule, the IFN-γ production (mouse CD4+ naive T cells; Th1 polarization 5 days) was “failed to inhibit”, the “differentiation of Th17 cells (IL-17A)” value (mouse CD4+ naive T cells; Th17 polarization 5 days) was “preferentially inhibited; also recorded: attenuates” and the “IL-17A production in CD4+ memory T cells treated with statins” value [3] was “further reduced”. The “IFN-γ production by CD4+ memory T cells” value ([3]; TCR stimulation 3 days, Bi2 10 μM, JPH203 10 μM, HMB 0.4 mM, VH298 100 nM, LβhL 400 mg/L) was “did not affect”, the “IL-17A production by CD4+ memory T cells” value ([3]; TCR stimulation 3 days, Bi2 10 μM, JPH203 10 μM, statin 10 μM, LβhL 400 mg/L) was “preferentially inhibited; also recorded: significantly reduced” and the “HIF-1α mRNA expression” value (HIF-1α; 4 hours after TCR stimulation) was “reduced”. For the same molecule, the “expression of SCL2A1, LDHA and PGK1 mRNA (HIF-1α target genes)” value (HIF-1α; 72 hours of TCR stimulation) was “reduced”.
